Patent US20230011571A1, “SMALL MOLECULE FURIN INHIBITORS FOR TREATING INFECTIOUS DISEASES” (BP Asset V, Inc., priority 2019, published 2023)

Columns and labels:
Assay type in all cases: cell-based
dengue virus (DENV) = test: microbe, parasite or virus in culture; details: Dengue virus, Vero, 120 h, read-out: Percent viral inhibition DENY
[1] = tested on: Chikungunya virus (CHIKV); test: microbe, parasite or virus in culture; details: Chikungunya virus, Vero, 48 h, read-out: Percent viral inhibition CHKV
Marburg virus (MARV) = test: organism not typed; details: Vero, 72 h, read-out: Percent viral inhibition MARV

Compound: CC(O)CC1CCN(Cc2cc(Oc3cnc(N4CCN(C)CC4)nc3)nc(-c3cc(Cl)cc(Cl)c3)c2)CC1 (stereo not drawn) [Example 138, 1-(1-((2-(3,5-dichlorophenyl)-6-((2-(4-methylpiperazin-1-yl)pyrimidin-5-yl)oxy)pyridin-4-yl)methyl)piperidin-4-yl)propan-2-ol]
- inhibition at 1 µM (dengue virus (DENV)): 54.9%
- inhibition at 1 µM [1]: 21.7%
- inhibition at 1 µM (Marburg virus (MARV)): 32.4%

Compound: CN1CCCN(c2ncc(Oc3cc(CN4CCC(OCC(=O)O)CC4)cc(-c4cc(Cl)cc(Cl)c4)n3)cn2)CC1 [Example 140, 2-((1-((2-(3,5-dichlorophenyl)-6-((2-(4-methyl-1,4-diazepan-1-yl)pyrimidin-5-yl)oxy)pyridin-4-yl)methyl)piperidin-4-yl)oxy)acetic acid]
- inhibition at 1 µM (dengue virus (DENV)): 14.1%
- inhibition at 1 µM [1]: 32.7%
- inhibition at 1 µM (Marburg virus (MARV)): 51.5%

Compound: CN1CCN(c2ccc(Oc3cc(CN4CCC5(CC4)CNC(=O)OC5)cc(-c4cc(Cl)cc(Cl)c4)n3)cn2)CC1 [Example 141, 9-((2-(3,5-dichlorophenyl)-6-((6-(4-methylpiperazin-1-yl)pyridin-3-yl)oxy)pyridin-4-yl)methyl)-2-oxa-4,9-diazaspiro[5.5]undecan-3-one]
- inhibition at 1 µM (dengue virus (DENV)): 27.7%
- inhibition at 1 µM [1]: 20.9%
- inhibition at 1 µM (Marburg virus (MARV)): 66.6%

Compound: CN1CCN(c2ncc(Oc3cc(CN4CCC(CC(N)=O)CC4)cc(-c4cc(Cl)cc(Cl)c4)n3)cn2)CC1 [Example 142, 2-(1-((2-(3,5-dichlorophenyl)-6-((2-(4-methylpiperazin-1-yl)pyrimidin-5-yl)oxy)pyridin-4-yl)methyl)piperidin-4-yl)acetamide]
- inhibition at 1 µM (dengue virus (DENV)): 51.5%
- inhibition at 1 µM [1]: 15.4%
- inhibition at 1 µM (Marburg virus (MARV)): 49.1%

Compound: CN1CCN(c2ncc(Oc3cc(CN4CCC(OC5(C(=O)O)CC5)CC4)cc(-c4cc(Cl)cc(Cl)c4)n3)cn2)CC1 [Example 143, 1-((1-((2-(3,5-dichlorophenyl)-6-((2-(4-methylpiperazin-1-yl)pyrimidin-5-yl)oxy)pyridin-4-yl)methyl)piperidin-4-yl)oxy)cyclopropanecarboxylic acid]
- inhibition at 1 µM (dengue virus (DENV)): 34.5%
- inhibition at 1 µM [1]: 34.4%
- inhibition at 1 µM (Marburg virus (MARV)): 40.5%

Compound: COC1CN(C)CCN(c2ncc(Oc3cc(CN4CCC(CC(=O)O)CC4)cc(-c4cc(Cl)cc(Cl)c4)n3)cn2)C1 (stereo not drawn) [Example 144, 2-(1-((2-(3,5-dichlorophenyl)-6-((2-(6-methoxy-4-methyl-1,4-diazepan-1-yl)pyrimidin-5-yl)oxy)pyridin-4-yl)methyl)piperidin-4-yl)acetic acid]
- inhibition at 1 µM (dengue virus (DENV)): 35%
- inhibition at 1 µM [1]: 32.6%
- inhibition at 1 µM (Marburg virus (MARV)): 56.6%

Compound: CN1CCN(c2ncc(Oc3cc(CN4CCC(CC(=O)O)CC4)cc(-c4cc(Cl)cc(Cl)c4)n3)cn2)CC(C)(O)C1 (stereo not drawn) [Example 146, 2-(1-((2-(3,5-dichlorophenyl)-6-((2-(6-hydroxy-4,6-dimethyl-1,4-diazepan-1-yl)pyrimidin-5-yl)oxy)pyridin-4-yl)methyl)piperidin-4-yl)acetic acid]
- inhibition at 1 µM (dengue virus (DENV)): 41.8%
- inhibition at 1 µM [1]: 23.1%
- inhibition at 1 µM (Marburg virus (MARV)): 66.2%

Compound: CN1CCN(c2ncc(Oc3cc(CN4CCC(CC(=O)O)CC4)cc(-c4cc(Cl)cc(Cl)c4)n3)cn2)CC(F)C1 (stereo not drawn) [Example 147, 2-(1-((2-(3,5-dichlorophenyl)-6-((2-(6-fluoro-4-methyl-1,4-diazepan-1-yl)pyrimidin-5-yl)oxy)pyridin-4-yl)methyl)piperidin-4-yl)acetic acid]
- inhibition at 1 µM (dengue virus (DENV)): 42.8%
- inhibition at 1 µM [1]: 31.7%
- inhibition at 1 µM (Marburg virus (MARV)): 44.2%

Compound: CNC1CCN(c2ncc(Oc3cc(CN4CCC(CC(=O)O)CC4)cc(-c4cc(Cl)cc(Cl)c4)n3)cn2)C1 (stereo not drawn) [Example 152, 2-(1-((2-(3,5-dichlorophenyl)-6-((2-(3-(methylamino)pyrrolidin-1-yl)pyrimidin-5-yl)oxy)pyridin-4-yl)methyl)piperidin-4-yl)acetic acid]
- inhibition at 1 µM (dengue virus (DENV)): 19%
- inhibition at 1 µM [1]: 16.3%
- inhibition at 1 µM (Marburg virus (MARV)): 44.1%

Compound: CN1CCN(c2ncc(Oc3cc(CN4CCO[C@H](CCO)CC4)cc(-c4cc(Cl)cc(Cl)c4)n3)cn2)CC1 [Example 153, (S)-2-(4-((2-(3,5-dichlorophenyl)-6-((2-(4-methylpiperazin-1-yl)pyrimidin-5-yl)oxy)pyridin-4-yl)methyl)-1,4-oxazepan-7-yl)ethanol]
- inhibition at 1 µM (dengue virus (DENV)): 41.5%
- inhibition at 1 µM [1]: 14.1%
- inhibition at 1 µM (Marburg virus (MARV)): 56.8%

Compound: CC(=O)CC1CCN(Cc2cc(Oc3cnc(N4CCN(C)CC4)nc3)nc(-c3cc(Cl)cc(Cl)c3)c2)CC1 [Example 155, 1-(1-((2-(3,5-dichlorophenyl)-6-((2-(4-methylpiperazin-1-yl)pyrimidin-5-yl)oxy)pyridin-4-yl)methyl)piperidin-4-yl)propan-2-one]
- inhibition at 1 µM (dengue virus (DENV)): 8.98%
- inhibition at 1 µM [1]: 14.5%
- inhibition at 1 µM (Marburg virus (MARV)): 42%

Compound: CN1CCCN(c2ccc(Oc3cc(CN4CCC(CC(=O)O)CC4)cc(-c4cc(Cl)cc(Cl)c4)n3)cn2)CC1 [Example 156, 2-(1-((2-(3,5-dichlorophenyl)-6-((6-(4-methyl-1,4-diazepan-1-yl)pyridin-3-yl)oxy)pyridin-4-yl)methyl)piperidin-4-yl)acetic acid]
- inhibition at 1 µM (dengue virus (DENV)): 43.9%
- inhibition at 1 µM [1]: 38.4%
- inhibition at 1 µM (Marburg virus (MARV)): 13.2%

Compound: CC(=O)NCC1CCN(Cc2cc(Oc3ccc(N4CCN(C)CC4)nn3)nc(-c3cc(Cl)cc(Cl)c3)c2)CC1 [Example 157, N-((1-((2-(3,5-dichlorophenyl)-6-((6-(4-methylpiperazin-1-yl)pyridazin-3-yl)oxy)pyridin-4-yl)methyl)piperidin-4-yl)methyl)acetamide]
- inhibition at 1 µM (dengue virus (DENV)): 53.4%
- inhibition at 1 µM [1]: 25.3%
- inhibition at 1 µM (Marburg virus (MARV)): 77.5%

Compound: NC1CCN(c2ncc(Oc3cc(CN4CCC(CC(=O)O)CC4)cc(-c4cc(Cl)cc(Cl)c4)n3)cn2)CC1 [Example 158, 2-(1-((2-((2-(4-aminopiperidin-1-yl)pyrimidin-5-yl)oxy)-6-(3,5-dichlorophenyl)pyridin-4-yl)methyl)piperidin-4-yl)acetic acid]
- inhibition at 1 µM (dengue virus (DENV)): 19.3%
- inhibition at 1 µM [1]: 2.85%
- inhibition at 1 µM (Marburg virus (MARV)): 18%

Compound: C[C@H]1CN(c2ncc(Oc3cc(CN4CCC(CC(=O)O)CC4)cc(-c4cc(Cl)cc(Cl)c4)n3)cn2)CCN1 [Example 159, (S)-2-(1-((2-(3,5-dichlorophenyl)-6-((2-(3-methylpiperazin-1-yl)pyrimidin-5-yl)oxy)pyridin-4-yl)methyl)piperidin-4-yl)acetic acid]
- inhibition at 1 µM (dengue virus (DENV)): 17.5%
- inhibition at 1 µM [1]: 22.9%
- inhibition at 1 µM (Marburg virus (MARV)): 49.8%

Compound: CC1(C)CN(c2ncc(Oc3cc(CN4CCC(CC(=O)O)CC4)cc(-c4cc(Cl)cc(Cl)c4)n3)cn2)CCN1 [Example 160, 2-(1-((2-(3,5-dichlorophenyl)-6-((2-(3,3-dimethylpiperazin-1-yl)pyrimidin-5-yl)oxy)pyridin-4-yl)methyl)piperidin-4-yl)acetic acid]
- inhibition at 1 µM (dengue virus (DENV)): 49.5%
- inhibition at 1 µM [1]: 21.7%
- inhibition at 1 µM (Marburg virus (MARV)): 35.1%

Compound: O=C(O)CC1CCN(Cc2cc(Oc3cnc(N4CC5CNCC5C4)nc3)nc(-c3cc(Cl)cc(Cl)c3)c2)CC1 (stereo not drawn) [Example 161, 2-(1-((2-(3,5-dichlorophenyl)-6-((2-(hexahydropyrrolo[3,4-c]pyrrol-2(1H)-yl)pyrimidin-5-yl)oxy)pyridin-4-yl)methyl)piperidin-4-yl)acetic acid]
- inhibition at 1 µM (dengue virus (DENV)): 33%
- inhibition at 1 µM [1]: 28.5%
- inhibition at 1 µM (Marburg virus (MARV)): 44.9%

Compound: O=C(O)CC1CCN(Cc2cc(Oc3cnc(N4CC5CC(C4)N5)nc3)nc(-c3cc(Cl)cc(Cl)c3)c2)CC1 [Example 162, 2-(1-((2-((2-(3,6-diazabicyclo[3.1.1]heptan-3-yl)pyrimidin-5-yl)oxy)-6-(3,5-dichlorophenyl)pyridin-4-yl)methyl)piperidin-4-yl) acetic acid]
- inhibition at 1 µM (dengue virus (DENV)): 41.4%
- inhibition at 1 µM [1]: 30.8%
- inhibition at 1 µM (Marburg virus (MARV)): 72.8%

Compound: O=C(O)CC1CCN(Cc2cc(Oc3cnc(N4CC5CCC(C4)N5)nc3)nc(-c3cc(Cl)cc(Cl)c3)c2)CC1 [Example 163, 2-(1-((2-((2-(3,8-diazabicyclo[3.2.1]octan-3-yl)pyrimidin-5-yl)oxy)-6-(3,5-dichlorophenyl)pyridin-4-yl)methyl)piperidin-4-yl)acetic acid]
- inhibition at 1 µM (dengue virus (DENV)): 32.5%
- inhibition at 1 µM [1]: 22%
- inhibition at 1 µM (Marburg virus (MARV)): 34.4%

Compound: O=C(O)CC1CCN(Cc2cc(Oc3cnc(N4CCNC5(CC5)C4)nc3)nc(-c3cc(Cl)cc(Cl)c3)c2)CC1 [Example 164, 2-(1-((2-((2-(4,7-diazaspiro[2.5]octan-7-yl)pyrimidin-5-yl)oxy)-6-(3,5-dichlorophenyl)pyridin-4-yl)methyl)piperidin-4-yl)acetic acid]
- inhibition at 1 µM (dengue virus (DENV)): 45.5%
- inhibition at 1 µM [1]: 34.6%
- inhibition at 1 µM (Marburg virus (MARV)): 36.1%

Compound: NC1(CO)CCN(c2ncc(Oc3cc(CN4CCC(CC(=O)O)CC4)cc(-c4cc(Cl)cc(Cl)c4)n3)cn2)CC1 [Example 165, 2-(1-((2-((2-(4-amino-4-(hydroxymethyl)piperidin-1-yl)pyrimidin-5-yl)oxy)-6-(3,5-dichlorophenyl)pyridin-4-yl)methyl)piperidin-4-yl) acetic acid]
- inhibition at 1 µM (dengue virus (DENV)): 36.9%
- inhibition at 1 µM [1]: 18.6%
- inhibition at 1 µM (Marburg virus (MARV)): 50.9%

Compound: O=C(O)CC1CCN(Cc2cc(Oc3ccc(N4CCCNCC4)nc3)nc(-c3cc(Cl)cc(Cl)c3)c2)CC1 [Example 166, 2-(1-((2-((6-(1,4-diazepan-1-yl)pyridin-3-yl)oxy)-6-(3,5-dichlorophenyl)pyridin-4-yl)methyl)piperidin-4-yl) acetic acid]
- inhibition at 1 µM (dengue virus (DENV)): 21.3%
- inhibition at 1 µM [1]: 35.3%
- inhibition at 1 µM (Marburg virus (MARV)): 45%

Compound: CC(=O)NCC1CCN(Cc2cc(Oc3cnc(N4CCN(CCS(C)(=O)=O)CC4)nc3)cc(-c3cc(Cl)cc(Cl)c3)c2)CC1 [Example 167, N-((1-((3′,5′-dichloro-5-((2-(4-(2-(methylsulfonyl)ethyl)piperazin-1-yl)pyrimidin-5-yl)oxy)-[1,1′-biphenyl]-3-yl)methyl)piperidin-4-yl)methyl)acetamide]
- inhibition at 1 µM (dengue virus (DENV)): 41.3%
- inhibition at 1 µM [1]: 0%
- inhibition at 1 µM (Marburg virus (MARV)): 0%

Compound: CC(=O)NCC1CCN(Cc2cc(Oc3cnc(N4CCN(CCC(=O)O)CC4)nc3)cc(-c3cc(Cl)cc(Cl)c3)c2)CC1 [Example 168]
- inhibition at 1 µM (dengue virus (DENV)): 38.9%
- inhibition at 1 µM [1]: 29.6%
- inhibition at 1 µM (Marburg virus (MARV)): 60.3%
